Results reported in patent US11371055B2, “Herbicide resistance genes” (CORTEVA AGRISCIENCE LLC, priority 2005, dated 2022).
Marks after values point to notes of the source that are not given here.

Key:
[1] = system: cotton cotyledonary segments; type: cell-based
Experimental: A dose response study was initiated to test multiple auxin alternatives as a substitute for the use of 2,4-D as a growth regulator in cotton. The alternative auxin tested were 2,4-dichlorprop, dicamba, and picloram. These compounds were tested at 0.2, 2.0, and 20.0 uM concentrations respectively. 2,4-D was used as the control treatment at 0.02 uM concentration. The medium used is the base medium for cotton callus induction (Example 12). Beyond the initial phase of culture, auxin is removed from the medium to prod the tissue toward the regeneration process.

[2] = system: AAD-12 (v1) pDAB4101 corn events (4101(0)003.R.003.AF and 4101(0)005.R001.AF); experiment: Field tolerance of corn: visual injury and brace root injury, AAD-12 events; type: in vivo, Zea mays
Experimental: Seeds were planted with cone planter on 40-inch row spacing at Wayside and 30 inch spacing at Fowler. […] Herbicide treatments were 2,4-D (dimethylamine salt) at 1120, 2240 and 4480 g ae/ha, triclopyr at 840 g ae/ha, fluroxypyr at 280 g ae/ha and an untreated control. The AAD-12 (v1) events contained the AHAS gene as a selectable marker. The F2 corn events were segregating so the AAD-12 (v1) plants were treated with imazethapyr at 70 g ae/ha to remove the null plants. Herbicide treatments were applied when corn reached the V6 stage using compressed air backpack sprayer delivering 187 L/ha carrier volume at 130-200 kpa pressure. […]

[3] = system: AAD-12 (v1) canola events 3759(20)018.001 and 3759(18)030.001; experiment: Field tolerance of canola, AAD-12 events; type: in vivo, Brassica napus
Experimental: Field level tolerance trial was conducted on two AAD-12 (v1) events 3759(20)018.001 and 3759(18)030.001 and a wild-type canola (Nex710) in Fowler, Ind. The experimental design was a randomized complete block design with 3 replications. Herbicide treatments were 2,4-D (dimethylamine salt) at 280, 560, 1120, 2240 and 4480 g ac/ha, triclopyr at 840 g ae/ha, fluroxypyr at 280 g ae/ha and an untreated control. Within each herbicide treatment, single 20 ft row/event for event 3759(18)030.0011, 3759(18)018.001 and wild-type line (Nex710) were planted with a 4 row drill on 8 inch row spacing. Herbicide treatments were applied when canola reached the 4-6 leaf stage using compressed air backpack sprayer delivering 187 L/ha carrier volume at 130-200 kpa pressure. […]

wildtype tobacco = experiment: Auxinic herbicide cross tolerance of stacked tobacco, wildtype; type: in vivo, Nicotiana tabacum; details: KY160 wildtype control
Experimental: Homozygous AAD-12 (v1) (pDAS1580) and AAD-1 (v3) (pDAB721) plants (see PCT/US2005/014737 for the latter) were both reciprocally crossed and F1 seed was collected. The F1 seed from two reciprocal crosses of each gene were stratified and treated 4 reps of each cross were treated under the same spray regimen as used for the other testing with one of the following treatments: 70, 140, 280 g ac/ha fluroxypyr (selective for the AAD-12 (v1) gene); 280, 560, 1120 g ae/ha R-dichloroprop (selective for the AAD-1 (v3) gene); or 560, 1120, 2240 g ae/ha 2,4-D DMA (to confirm 2,4-D tolerance). Homozygous T2 plants of each gene were also planted for use as controls. Plants were graded at 3 and 14 DAT.

[4] = system: Roundup Ready (RR) control corn hybrid (2P782); experiment: Field tolerance of corn: visual injury and brace root injury, control hybrid; type: in vivo, Zea mays; details: for visual injury: 14 DAT; for % Visual Injury 14DAT: 2P782 control
Experimental: Seeds were planted with cone planter on 40-inch row spacing at Wayside and 30 inch spacing at Fowler. […] Herbicide treatments were 2,4-D (dimethylamine salt) at 1120, 2240 and 4480 g ae/ha, triclopyr at 840 g ae/ha, fluroxypyr at 280 g ae/ha and an untreated control. The AAD-12 (v1) events contained the AHAS gene as a selectable marker. The F2 corn events were segregating so the AAD-12 (v1) plants were treated with imazethapyr at 70 g ae/ha to remove the null plants. Herbicide treatments were applied when corn reached the V6 stage using compressed air backpack sprayer delivering 187 L/ha carrier volume at 130-200 kpa pressure. Visual injury ratings were taken at 7, 14 and 21 days after treatment.

[5] = system: Segregating T2 AAD-12 (v1) plants (pDAB724.01.1.20); experiment: Foliar-applied auxinic herbicides on T2 Arabidopsis; type: in vivo, Arabidopsis thaliana; details: Pyridyloxyacetic auxins
Experimental: (§1) The ability of AAD-12 (v1) to provide resistance to other aryloxyalkanoate auxin herbicides in transgenic Arabidopsis was determined by foliar application of various substrates. T2 generation Arabidopsis seed was stratified, and sown into selection trays much like that of Arabidopsis (Example 6.4). A transformed-control line containing PAT and the insect resistance gene Cry1F was planted in a similar manner. Seedlings were transferred to individual 3-inch pots in the greenhouse. All plants were sprayed with the use of a track sprayer set at 187 L/ha. The plants were sprayed with a range of pyridyloxyacetate herbicides: 280-2240 g ae/ha triclopyr (Garlon 3A, Dow AgroSciences) and 280-2240 g ae/ha fluroxypyr (Starane, Dow AgroSciences); and the 2,4-D metabolite resulting from AAD-12 activity, 2,4-dichlorophenol (DCP, Sigma) (at a molar equivalent to 280-2240 g ac/ha of 2,4-D, technical grade DCP was used). All applications were formulated in water. Each treatment was replicated 3-4 times. Plants were evaluated at 3 and 14 days after treatment.

[6] = system: Pat/Cry1f-Control Arabidopsis; experiment: Foliar-applied auxinic herbicides on transformed control Arabidopsis; type: in vivo, Arabidopsis thaliana; details: Pyridyloxyacetic auxins
Experimental: as §1

[7] = AAD-12 event 3759(18)030.001, 280 GM AE/HA
[8] = AAD-12 event 3759(20)018.001, 280 GM AE/HA
[9] = Fluroxypyr at 280 g ae/ha, 5DAT
[10] = 2× rate of triclopyr (840 g ae/ha), 14 DAT

O=C(O)COc1ccc(Cl)cc1Cl [2,4-D, 2,4-dichlorophenoxyacetic acid]
effect on cotton callus generation and growth ([1]; highest concentration (20 uM)): inhibitory
visual injury ([2]; 2,4-D at the 1, 2 and 4× rates, V6 stage, 14 DAT): 0%
brace root injury ([2]; 4480 g ae/ha of 2,4-D): no brace root injury
% Visual Injury 14DAT ([2]; AAD-12 4101(0)003.R.003.AF, 1120 g ae/ha): 0%
% Visual Injury 14DAT ([2]; AAD-12 4101(0)003.R.003.AF, 2240 g ae/ha): 0%
% Visual Injury 14DAT ([2]; AAD-12 4101(0)003.R.003.AF, 4480 g ae/ha): 0%
% Visual Injury 14DAT ([2]; AAD-12 4101(0)005.001.AF, 1120 g ae/ha): 0%
% Visual Injury 14DAT ([2]; AAD-12 4101(0)005.001.AF, 2240 g ae/ha): 1%
% Visual Injury 14DAT ([2]; AAD-12 4101(0)005.001.AF, 4480 g ae/ha): 1%
Brace Root Injury Rating (0-10 scale) 28DAT ([2]; AAD-12 event 4101(0)003.R.003.AF, 1120 g ae/ha): 0
Brace Root Injury Rating (0-10 scale) 28DAT ([2]; AAD-12 event 4101(0)003.R.003.AF, 2240 g ae/ha): 0
Brace Root Injury Rating (0-10 scale) 28DAT ([2]; AAD-12 event 4101(0)003.R.003.AF, 4480 g ae/ha): 0
Brace Root Injury Rating (0-10 scale) 28DAT ([2]; AAD-12 event 4101(0)005.001.AF, 1120 g ae/ha): 0
Brace Root Injury Rating (0-10 scale) 28DAT ([2]; AAD-12 event 4101(0)005.001.AF, 2240 g ae/ha): 0
Brace Root Injury Rating (0-10 scale) 28DAT ([2]; AAD-12 event 4101(0)005.001.AF, 4480 g ae/ha): 0
average injury ([3]; 2,4-D at the 1× rate, 14DAT): 2%
average injury ([3]; 2,4-D at the 2× rate, 14DAT): 3%
average injury ([3]; 2,4-D at the 4× rate, 14DAT): 2%
% Visual Injury at 14 DAT [3, 7]: 0 b %
% Visual Injury at 14 DAT ([3]; AAD-12 event 3759(18)030.001, 560 GM AE/HA): 0 b %
% Visual Injury at 14 DAT ([3]; AAD-12 event 3759(18)030.001, 1120 GM AE/HA): 2 ab %
% Visual Injury at 14 DAT ([3]; AAD-12 event 3759(18)030.001, 2240 GM AE/HA): 3 ab %
% Visual Injury at 14 DAT [3, 8]: 0 a %
% Visual Injury at 14 DAT ([3]; AAD-12 event 3759(20)018.001, 560 GM AE/HA): 0 a %
% Visual Injury at 14 DAT ([3]; AAD-12 event 3759(20)018.001, 1120 GM AE/HA): 2 a %
% Visual Injury at 14 DAT ([3]; AAD-12 event 3759(20)018.001, 2240 GM AE/HA): 3 a %
Average % injury 14 DAT (wildtype tobacco; 560 g ae/ha): 63%
Average % injury 14 DAT (wildtype tobacco; 1120 g ae/ha): 80%
Average % injury 14 DAT (wildtype tobacco; 2240 g ae/ha): 90%
visual injury ([4]; 2,4-D at 4480 g ae/ha, V6 stage): 44%
% Visual Injury 14DAT ([4]; 1120 g ae/ha): 9%
% Visual Injury 14DAT ([4]; 2240 g ae/ha): 20%
% Visual Injury 14DAT ([4]; 4480 g ae/ha): 34%
brace root injury ([4]; 4480 g ae/ha of 2,4-D): severe brace root fusing and malformation
Brace Root Injury Rating (0-10 scale) 28DAT ([4]; Wild-type NK603, 1120 g ae/ha): 3
Brace Root Injury Rating (0-10 scale) 28DAT ([4]; Wild-type NK603, 2240 g ae/ha): 5
Brace Root Injury Rating (0-10 scale) 28DAT ([4]; Wild-type NK603, 4480 g ae/ha): 6

C[C@@H](Oc1ccc(Cl)cc1Cl)C(=O)O [(R)-dichlorprop, R-2,4-dichlorophenoxypropionic acid]
callus induction of cotyledonary segments ([1]; concentrations tested up to 20 uM): not effective
Average % injury 14 DAT (wildtype tobacco; 280 g ae/ha): 25%
Average % injury 14 DAT (wildtype tobacco; 560 g ae/ha): 60%
Average % injury 14 DAT (wildtype tobacco; 1120 g ae/ha): 80%

Nc1c(Cl)c(F)nc(OCC(=O)O)c1Cl [Fluroxypyr]
Ave % Injury 14DAT ([5]; 280 g ae/ha foliar): 0%
Ave % Injury 14DAT ([5]; 560 g ae/ha foliar): 2%
Ave % Injury 14DAT ([5]; 1120 g ae/ha foliar): 3%
Ave % Injury 14DAT ([5]; 2240 g ae/ha foliar): 5%
Ave % Injury 14DAT ([6]; 280 g ae/ha foliar): 75* %
Ave % Injury 14DAT ([6]; 560 g ae/ha foliar): 75* %
Ave % Injury 14DAT ([6]; 1120 g ae/ha foliar): 75* %
Ave % Injury 14DAT ([6]; 2240 g ae/ha foliar): 75* %
% Visual Injury 14DAT ([2]; AAD-12 4101(0)003.R.003.AF, 280 g ae/ha): 1%
% Visual Injury 14DAT ([2]; AAD-12 4101(0)005.001.AF, 280 g ae/ha): 5%
Brace Root Injury Rating (0-10 scale) 28DAT ([2]; AAD-12 event 4101(0)003.R.003.AF, 280 g ae/ha): 0
Brace Root Injury Rating (0-10 scale) 28DAT ([2]; AAD-12 event 4101(0)005.001.AF, 280 g ae/ha): 0
brace root injury ([2]; Fluroxypyr at 280 g ae/ha): no brace root injury
visual injury, average [2, 9]: 8%
% Visual Injury at 14 DAT [3, 7]: 8 a %
% Visual Injury at 14 DAT [3, 8]: 7 a %
average injury [3, 9]: 8%
Average % injury 14 DAT (wildtype tobacco; 70 g ae/ha): 40%
Average % injury 14 DAT (wildtype tobacco; 140 g ae/ha): 65%
% Visual Injury 14DAT ([4]; 280 g ae/ha): 11%
brace root injury ([4]; Fluroxypyr at 280 g ae/ha): moderate brace root swelling and wandering
visual injury ([4]; Fluroxypyr at 280 g ae/ha): 11%
Brace Root Injury Rating (0-10 scale) 28DAT ([4]; Wild-type NK603, 280 g ae/ha): 2

O=C(O)COc1nc(Cl)c(Cl)cc1Cl [triclopyr]
Ave % Injury 14DAT ([5]; 280 g ae/ha foliar): 0%
Ave % Injury 14DAT ([5]; 560 g ae/ha foliar): 3%
Ave % Injury 14DAT ([5]; 1120 g ae/ha foliar): 0%
Ave % Injury 14DAT ([5]; 2240 g ae/ha foliar): 3%
Ave % Injury 14DAT ([6]; 280 g ae/ha foliar): 52%
Ave % Injury 14DAT ([6]; 560 g ae/ha foliar): 58%
Ave % Injury 14DAT ([6]; 1120 g ae/ha foliar): 75* %
Ave % Injury 14DAT ([6]; 2240 g ae/ha foliar): 75* %
visual injury, average across the two events [2, 10]: 3%
% Visual Injury 14DAT ([2]; AAD-12 4101(0)003.R.003.AF, 840 g ae/ha): 3%
% Visual Injury 14DAT ([2]; AAD-12 4101(0)005.001.AF, 840 g ae/ha): 4%
Brace Root Injury Rating (0-10 scale) 28DAT ([2]; AAD-12 event 4101(0)003.R.003.AF, 840 g ae/ha): 0
Brace Root Injury Rating (0-10 scale) 28DAT ([2]; AAD-12 event 4101(0)005.001.AF, 840 g ae/ha): 0
brace root injury ([2]; Triclopyr at 840 g ae/ha): no brace root injury
average injury across the two events [3, 10]: 6%
% Visual Injury at 14 DAT ([3]; AAD-12 event 3759(18)030.001, 840 GM AE/HA): 6 ab %
% Visual Injury at 14 DAT ([3]; AAD-12 event 3759(20)018.001, 840 GM AE/HA): 6 a %
% Visual Injury 14DAT ([4]; 840 g ae/ha): 31%
visual injury ([4]; 2× rate of triclopyr (840 g ae/ha)): 31%
average brace root injury score (0-10 scale) ([4]; Triclopyr at 840 g ae/ha, 28DAT): 7
Brace Root Injury Rating (0-10 scale) 28DAT ([4]; Wild-type NK603, 840 g ae/ha): 7
